From patent US9686985B2, “Fungicide N-cycloalkyl-N-bicyclicmethylene-carboxamide derivatives” (BAYER INTELLECTUAL PROPERTY GMBH, priority 2012, dated 2017)

Experiments:
Pyrenophora teres = experiment: Example N: in vivo preventive test on Pyrenophora teres (barley); details: table N; 500 ppm; barley plants; grading 14 days after contamination
Description: Example N: In Vivo Preventive Test on Pyrenophora teres (Barley) […] Barley plants (“Plaisant” variety), sown in starter cups on a 50/50 peat soil pozzolana substrate and grown at 22° C., are treated at the 1 leaf stage (10 cm height) by spraying with the active ingredient prepared as described above. Plants, used as controls, are treated with the mixture of acetone/tween/DMSO/water not containing the active material. After 24 hours, the plants are contaminated by spraying the leaves with an aqueous suspension of Pyrenophora teres spores (12 000 spores per mL). The spores are collected from a 12-day-old culture. The contaminated barley plants are incubated for 48 hours at 20° C. and at 100% relative humidity, and then for 12 days at 20° C. at 70-80% relative humidity. Grading (% of efficacy) is carried out 14 days after the contamination, in comparison with the control plants.

Alternaria brassicae = experiment: Example D: in vivo preventive test on Alternaria brassicae (leaf spot on radish); details: table D; 500 ppm; radish plants; grading 6 days after contamination
Description: Example D: In Vivo Preventive Test on Alternaria brassicae (Leaf Spot on Radish) […] Radish plants (“Pernod Clair” variety), sown in starter cups on a 50/50 peat soil pozzolana substrate and grown at 17° C., are treated at the cotyledon stage by spraying with the active ingredient prepared as described above. Plants, used as controls, are treated with the mixture of acetone/tween/DMSO/water not containing the active material. After 24 hours, the plants are contaminated by spraying the cotyledons with an aqueous suspension of Alternaria brassicae spores (50 000 spores per mL). The spores are collected from a 15-day-old culture. The contaminated radish plants are incubated at 20° C. and at 100% relative humidity. Grading (% of efficacy) is carried out 6 days after the contamination, in comparison with the control plants.

Puccinia recondita = experiment: Example R: in vivo preventive test on Puccinia recondita (brown rust on wheat); details: table R; 500 ppm; wheat plants; grading 12 days after contamination
Description: Example R: In Vivo Preventive Test on Puccinia recondita (Brown Rust on Wheat) […] Wheat plants (“Scipion” variety), sown in starter cups on a 50/50 peat soil pozzolana substrate and grown at 22° C., are treated at the 1 leaf stage (10 cm height) by spraying with the active ingredient prepared as described above. Plants, used as controls, are treated with the mixture of acetone/tween/DMSO/water not containing the active material. After 24 hours, the plants are contaminated by spraying the leaves with an aqueous suspension of Puccinia recondita spores (100 000 spores per mL). The spores are collected from an infected plant and are suspended in water containing 2.5 mL/L of Tween 80 at 10%. The contaminated wheat plants are incubated for 24 hours at 20° C. and at 100% relative humidity, and then for 10 days at 20° C. and at 70-80% relative humidity. Grading (% of efficacy) is carried out 12 days after the contamination, in comparison with the control plants.

Uromyces appendiculatus = experiment: Example G: in vivo preventive test on Uromyces appendiculatus (bean rust); details: bean plants; for protection: summary over doses of 500 ppm and 100 ppm
Description: Example G: In Vivo Preventive Test on Uromyces appendiculatus (Bean Rust) […] Bean plants (“Saxa” variety), sown in starter cups on a 50/50 peat soil pozzolana substrate and grown at 24° C., are treated at the 2 leaf stage (9 cm height) by spraying with the active ingredient prepared as described above. Plants, used as controls, are treated with the mixture of acetone/tween/DMSO/water not containing the active material. After 24 hours, the plants are contaminated by spraying the leaves with an aqueous suspension of Uromyces appendiculatus spores (150 000 spores per mL). The spores are collected from infected plants and are suspended in water containing 2.5 mL/L of Tween 80 at 10%. The contaminated bean plants are incubated for 24 hours at 20° C. and at 100% relative humidity, and then for 10 days at 20° C. and at 70-80% relative humidity. Grading (% of efficacy) is carried out 11 days after the contamination, in comparison with the control plants.

[1] = log P by HPLC on reversed-phase column (EEC Directive 79/831 Annex V.A8); format: physicochemical; details: for logP: Table 1, HPLC C18, 40° C., 0.1% aqueous formic acid and acetonitrile gradient
Description: In table 1, the log P values were determined in accordance with EEC Directive 79/831 Annex V.A8 by HPLC (High Performance Liquid Chromatography) on a reversed-phase column (C 18), using the method described below: Temperature: 40° C.; Mobile phases: 0.1% aqueous formic acid and acetonitrile; linear gradient from 10% acetonitrile to 90% acetonitrile. Calibration was carried out using unbranched alkan-2-ones (comprising 3 to 16 carbon atoms) with known log P values (determination of the log P values by the retention times using linear interpolation between two successive alkanones). lambda-max-values were determined using UV-spectra from 200 nm to 400 nm and the peak values of the chromatographic signals.

Sphaerotheca fuliginea = experiment: Example B: in vivo preventive test on Sphaerotheca fuliginea (powdery mildew on cucurbits); details: table B; 500 ppm; gherkin plants; grading 12 days after contamination
Description: Example B: In Vivo Preventive Test on Sphaerotheca fuliginea (Powdery Mildew on Cucurbits) […] Gherkin plants (“Vert petit de Paris” variety), sown in starter cups on a 50/50 peat soil-pozzolana substrate and grown at 24° C., are treated at the Z11 cotyledon stage by spraying with the active ingredient prepared as described above. Plants, used as controls, are treated with the mixture of acetone/tween/DMSO/water not containing the active material. After 24 hours, the plants are contaminated by spraying the cotyledons with an aqueous suspension of Sphaerotheca fuliginea spores (100 000 spores per mL). The spores are collected from infected plants. The contaminated gherkin plants are incubated at about 20° C. and at 70-80% relative humidity. Grading (% of efficacy) is carried out 12 days after the contamination, in comparison with the control plants.

Septoria tritici = experiment: Example L: in vivo preventive test on Septoria tritici (wheat); details: table L; 500 ppm; wheat plants; grading 24 days after contamination
Description: Example L: In Vivo Preventive Test on Septoria tritici (Wheat) […] Wheat plants (“Scipion” variety), sown in starter cups on a 50/50 peat soil pozzolana substrate and grown at 22° C., are treated at the 1 leaf stage (10 cm height) by spraying with the active ingredient prepared as described above. Plants, used as controls, are treated with the mixture of acetone/tween/DMSO/water not containing the active material. After 24 hours, the plants are contaminated by spraying the leaves with an aqueous suspension of cryopreserved Septoria tritici spores (500 000 spores per mL). The contaminated wheat plants are incubated for 72 hours at 18° C. and at 100% relative humidity, and then for 21 days at 90% relative humidity. Grading (% of efficacy) is carried out 24 days after the contamination, in comparison with the control plants.

[2] = table G1, 500 ppm, grading 11 days after contamination

| SMILES | Efficacy (Pyrenophora teres) [%] | Efficacy (Alternaria brassicae) [%] | logP [1] | Efficacy (Sphaerotheca fuliginea) [%] | Efficacy (Uromyces appendiculatus; table G2, dose 100 ppm) [%] | protection (Uromyces appendiculatus) | Efficacy (Uromyces appendiculatus; table G2, dose 500 ppm) [%] | other results |
| --- | --- | --- | --- | --- | --- | --- | --- | --- |
| Cn1nc(C(F)F)c(C(=O)N(CC2CCc3c(Cl)cc(Cl)cc32)C2CC2)c1Cl (centres unmarked) [I.19] | 71 | 92 | 4.59 | – | – | – | – | Efficacy (Puccinia recondita): 88%; Efficacy (Uromyces appendiculatus; [2]): 100% |
| Cn1nc(C(F)F)c(C(=O)N(CC2CCOc3ccccc32)C2CC2)c1Cl (centres unmarked) [I.32] | 88 | – | 3.17 | – | – | – | – | – |
| Cn1nc(C(F)F)c(C(=O)N(CC2CC(C)(C)c3ccccc32)C2CC2)c1F (centres unmarked) [I.9] | 97 | 100 | 3.94 | 100 | 100 | – | – | Efficacy (Puccinia recondita): 100%; Efficacy (Septoria tritici): 97% |
| Cn1cc(C(=O)N(CC2CCc3cc(Cl)ccc32)C2CC2)c(C(F)F)n1 (centres unmarked) [CMP6, N-[(5-chloro-2,3-dihydro-1H-inden-1-yl)methyl]-N-cyclopropyl-3-(difluoromethyl)-1-methyl-1H-pyrazole-4-carboxamide, reference compound] | – | – | – | – | 0 | high (at least 80%) to no protection | 19 | – |
| Cn1nc(C(F)F)c(C(=O)N(CC2CCCc3cccc(Cl)c32)C2CC2)c1Cl (centres unmarked) [I.29] | 88 | – | 4.26 | – | – | – | – | – |
| Cn1nc(C(F)F)c(C(=O)N(CC2CCc3c(Cl)cc(Cl)cc32)C2CC2)c1F (centres unmarked) [I.18] | 100 | 100 | 4.39 | 100 | – | – | – | Efficacy (Puccinia recondita): 94%; Efficacy (Uromyces appendiculatus; [2]): 100%; Efficacy (Septoria tritici): 93% |
| Cn1cc(C(=O)N(CC2CCc3cccc(Cl)c32)C2CC2)c(C(F)F)n1 (centres unmarked) [CMP7, N-[(7-chloro-2,3-dihydro-1H-inden-1-yl)methyl]-N-cyclopropyl-3-(difluoromethyl)-1-methyl-1H-pyrazole-4-carboxamide, reference compound] | – | – | – | – | 0 | high (at least 80%) to no protection | 0 | – |
| Cc1ccc2c(c1)CCC2CN(C(=O)c1c(C(F)F)nn(C)c1F)C1CC1 (centres unmarked) [I.6] | 100 | 97 | 3.76 | 100 | 69 | – | 100 | Efficacy (Puccinia recondita): 100%; Efficacy (Uromyces appendiculatus; [2]): 100%; Efficacy (Septoria tritici): 97% |
| Cn1nc(C(F)F)c(C(=O)N(CC2CCc3cc(Cl)ccc32)C2CC2)c1Cl (centres unmarked) [I.13] | 86 | 75 | 3.99 | 78 | – | – | – | – |
| COc1cccc2c1CCCC2CN(C(=S)c1c(C(F)F)nn(C)c1F)C1CC1 (centres unmarked) [I.27] | 71 | 93 | 4.46 | 80 | – | – | – | Efficacy (Septoria tritici): 97% |
| Cc1ccc2c(c1)CCC2CN(C(=O)c1cn(C)nc1C(F)F)C1CC1 (centres unmarked) [CMP3, N-cyclopropyl-3-(difluoromethyl)-1-methyl-N-[(5-methyl-2,3-dihydro-1H-inden-1-yl)methyl]-1H-pyrazole-4-carboxamide, reference compound] | – | – | – | – | 0 | high (at least 80%) to no protection | 34 | – |
| Cn1cc(C(=O)N(CC2CCc3c(F)cccc32)C2CC2)c(C(F)F)n1 (centres unmarked) [CMP4, N-cyclopropyl-3-(difluoromethyl)-N-[(4-fluoro-2,3-dihydro-1H-inden-1-yl)methyl]-1-methyl-1H-pyrazole-4-carboxamide, reference compound] | – | – | – | – | 0 | high (at least 80%) to no protection | 6 | – |
| Cn1nc(C(F)F)c(C(=O)N(CC2CCc3ccccc32)C2CC2)c1Cl (centres unmarked) [I.1] | 86 | – | 3.51 | 83 | – | – | – | Efficacy (Puccinia recondita): 88%; Efficacy (Uromyces appendiculatus; [2]): 72% |
| CC1CCC(CN(C(=O)c2c(C(F)F)nn(C)c2Cl)C2CC2)c2ccccc21 (centres unmarked) [I.25] | 94 | 94 | 4.11 | – | – | – | – | – |
| Cc1ccc2c(c1)CCC2CN(C(=O)c1c(C(F)F)nn(C)c1Cl)C1CC1 (centres unmarked) [I.5] | 86 | – | 3.94 | 100 | – | – | – | Efficacy (Puccinia recondita): 75% |
| Cc1cccc2c1CCC2CN(C(=O)c1c(C(F)F)nn(C)c1Cl)C1CC1 (centres unmarked) [I.4] | 71 | 75 | 3.87 | – | – | – | – | Efficacy (Septoria tritici): 79% |
| Cn1cc(C(=O)N(CC2CCc3ccccc32)C2CC2)c(C(F)F)n1 (centres unmarked) [CMP1, N-cyclopropyl-3-(difluoromethyl)-N-(2,3-dihydro-1H-inden-1-ylmethyl)-1-methyl-1H-pyrazole-4-carboxamide, reference compound] | – | – | – | – | 0 | high (at least 80%) to no protection | 13 | – |
| Cn1cc(C(=O)N(CC2CC(C)(C)c3ccccc32)C2CC2)c(C(F)F)n1 (centres unmarked) [CMP5, N-cyclopropyl-3-(difluoromethyl)-N-[(3,3-dimethyl-2,3-dihydro-1H-inden-1-yl)methyl]-1-methyl-1H-pyrazole-4-carboxamide, reference compound] | – | – | – | – | 31 | high (at least 80%) to no protection | – | – |
| Cc1cccc2c1CCC2CN(C(=O)c1cn(C)nc1C(F)F)C1CC1 (centres unmarked) [CMP2, N-cyclopropyl-3-(difluoromethyl)-1-methyl-N-[(4-methyl-2,3-dihydro-1H-inden-1-yl)methyl]-1H-pyrazole-4-carboxamide, reference compound] | – | – | – | – | 0 | high (at least 80%) to no protection | 80 | – |
| CC1CCC(CNC2CC2)c2ccccc21 (centres unmarked) [IIf.12, N-[(4-methyl-1,2,3,4-tetrahydronaphthalen-1-yl)methyl]cyclopropanamine] | – | – | – | – | – | – | – | chromatographic logP [1]: 1.22 |
| Cn1nc(C(F)F)c(C(=O)N(CC2CCc3cccc(Cl)c32)C2CC2)c1Cl (centres unmarked) [I.15] | 71 | – | 3.96 | – | – | – | – | – |
